Assay results as given in article PMC11530827, “Characterization of a cytochrome P450 that catalyzes the O-demethylation of lignin-derived benzoates” (The Journal of Biological Chemistry, 2024).

Experiments:
[1] = target: T1, PbdA S87A/S237A (Rhodococcus jostii, UniProt Q0SCI3, S235A/S85A); assay: Activity and coupling assay of PbdA S87A/S237A variant with PbdB; assay type: biochemical, Rhodococcus jostii RHA1
T1 construct: hexaHis (N, cleaved yes); made in house; host or cells: PbdA variant: E. coli BL-21 λ (DE3); PbdB: Rhodococcus jostii RHA1
Experimental: For activity measurements 0.25 to 1 μM of PbdA and PbdB were combined in a 200 μl cuvette in 20 mM Mops, pH 7.2 with substrate diluted in the same buffer. NADH was added to 350 μM to initiate the reaction. For HPLC analysis, enzymatic reactions were acidified by adding acetic acid to 10% final concentration, centrifuged (16,000×g for 10 min), and filtered through a 0.2 μm polytetrafluoroethylene membrane. Samples were run over a Luna 5 μm C18(2) 100 Å 150 × 3 mm column (Phenomenex) at 0.7 ml min^−1 by a Waters 2695 separation HPLC module. Samples were eluted with a 16.8 ml linear gradient from 1% methanol plus 0.1% formic acid in water to 100% methanol plus 0.1% formic acid and monitored at 280 nm with a Waters 2996 photodiode array detector. Concentrations were determined by interpolation on a standard curve of 0 to 1 mM of authentic standard. NADH concentration was measured by absorbance at 340 nm, ε = 6.22 mM^-1 cm^-1. Coupling was calculated from the ratio of rate of aromatic turnover, as determined by HPLC, and the rate of NADH oxidation, determined spectroscopically. Buffer ionic strength was adjusted by addition of NaCl, as appropriate. Apparent steady-state kinetic parameters were calculated by fitting Michaelis–Menten equations to initial velocity of reactions at various concentrations of aromatic substrate (LEONORA).
^aExperiments were performed using air-saturated MOPS (I = 0.1 M), pH 7.2, at 25 °C. The rate of aromatic substrate turnover was based on the appearance of O-demethylated product. Standard deviation is shown in parentheses.

[2] = target: T2, PbdA (Rhodococcus jostii, UniProt Q0SCI3); assay: Substrate binding to PbdA (WT) by type I spectral shift titration; parameters: hexaHis (N, cleaved yes); made in house; host or cells: PbdA: E. coli BL-21 λ (DE3); PbdB: Rhodococcus jostii RHA1; conditions: WT PbdA
T2 sequence (Q0SCI3 1-400): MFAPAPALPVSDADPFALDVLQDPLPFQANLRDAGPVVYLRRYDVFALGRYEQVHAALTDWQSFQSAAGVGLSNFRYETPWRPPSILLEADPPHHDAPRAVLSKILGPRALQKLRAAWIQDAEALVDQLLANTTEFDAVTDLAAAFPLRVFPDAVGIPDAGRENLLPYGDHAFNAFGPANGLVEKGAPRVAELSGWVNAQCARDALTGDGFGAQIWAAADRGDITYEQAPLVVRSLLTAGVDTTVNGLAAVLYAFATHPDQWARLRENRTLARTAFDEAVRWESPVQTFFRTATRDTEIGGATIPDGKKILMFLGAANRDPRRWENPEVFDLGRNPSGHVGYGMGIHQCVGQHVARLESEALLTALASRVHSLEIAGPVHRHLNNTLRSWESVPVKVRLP
Experimental: The affinity of PbdA for various LDACs was measured by the type I spectral shift upon titration of aromatic compound (Fig. 2). This shift occurs as the compound displaces a water coordinated to the heme iron, initiating a spin state transition in the latter from a low spin, hexacoordinate, to a high spin, pentacoordinate form.
Figure 2 Substrate binding of PbdA. A, difference spectra of PbdA titrated with 1 to 50 μM p-MBA from the substrate-free enzyme. Darker colors indicate higher concentration of p-MBA. Spectra were collected after each addition of substrate to 1 μM enzyme in 20 mM Mops, I = 0.1 M, pH 7.2. B, binding isotherm of PbdA and p-MBA. The fitted curve represents a simple hyperbola. p-MBA, para-methoxybenzoate.
(§1) UV-visible spectroscopy was conducted with a Cary 60 spectrophotometer equipped with a thermostatted cuvette holder at 25 °C. Scans of purified proteins diluted in 20 mM Mops, I = 0.1 M, pH 7.2 were taken between 250 and 700 nm. Heme concentration was calculated as described previously ([35]). Carbon monoxide binding was determined by reduction of PbdA diluted in 20 mM Mops, I = 0.1 M, pH 7.2 as above by a few grains of […]. CO was bubbled into the reduced enzyme for approximately 60 s at a rate of one bubble per second. Dissociation constants (Kd) were determined by titration of ligands diluted into enzyme buffer from 1 M stocks prepared in dimethyl sulfoxide into PbdA diluted in 20 mM Mops, I = 0.1 M, pH 7.2. Spectra take upon addition of substrate were subtracted from the spectrum of the enzyme, and peak-to-trough distance was plotted by ligand concentration. Kd values were determined by fitting a hyperbolic equation to the data as described previously ([23], [36]). The proportion of high-spin heme iron was determined using the approximate peak-to-trough extinction coefficient (ε ≈ 100 mM^−1 cm^−1) ([36]).

[3] = target: T3, PbdA R84M (Rhodococcus jostii, UniProt Q0SCI3, R82M); assay: Substrate binding to PbdA R84M variant by spectral titration; parameters: species or system Rhodococcus jostii RHA1
T3 construct: hexaHis (N, cleaved yes); made in house; host or cells: PbdA variant: E. coli BL-21 λ (DE3); PbdB: Rhodococcus jostii RHA1
Experimental: as §1

T1 sequence (Q0SCI3 entry or part of it S85A/S235A): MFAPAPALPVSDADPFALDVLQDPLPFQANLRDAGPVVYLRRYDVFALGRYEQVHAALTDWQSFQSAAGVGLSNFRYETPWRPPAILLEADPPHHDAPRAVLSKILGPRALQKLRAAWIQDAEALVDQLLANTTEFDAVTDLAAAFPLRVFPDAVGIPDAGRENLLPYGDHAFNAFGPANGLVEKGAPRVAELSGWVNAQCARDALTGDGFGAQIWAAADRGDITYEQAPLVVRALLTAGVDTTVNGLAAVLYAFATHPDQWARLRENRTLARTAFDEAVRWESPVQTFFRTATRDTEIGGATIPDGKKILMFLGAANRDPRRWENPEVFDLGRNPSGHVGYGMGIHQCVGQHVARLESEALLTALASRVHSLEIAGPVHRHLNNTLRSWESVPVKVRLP
T3 sequence (Q0SCI3 entry or part of it R82M): as the sequence (Q0SCI3 entry or part of it S85A/S235A) above, with R82M, A85S, A235S counted along it

COc1ccc(C(=O)O)cc1 [p-MBA, p-methoxybenzoate]
Coupling [1]: 40 (2) % | Specific activity ([1]; O-demethylation): 180 (10) U μg P450^-1 | NADH depletion rate ([1]; air-saturated MOPS (I = 0.1 M), pH 7.2, 25 °C): 400 (30) U mg P450^-1 | Rate of Aromatic turnover ([1]; appearance of O-demethylated product): 170 (10) U mg P450^-1 | Kd ([2]; 20 mM Mops, I = 0.1 M, pH 7.2, 25 °C, SD in parentheses, read-out: Kd): 3.8 µM | %High-spin (percent of heme iron in high-spin state) ([2]; on substrate binding): >99% | Kd [3]: 36 µM | ΔG° ([3]; R84M variant, binding energy): -6.1 kcal/mol | ΔΔG° ([3]; R84M variant, comparison of ΔG° of variant to wild type): 1.3 kcal/mol
